What all share (experiment): nuclear TFEB, TFE3 and cytosolic ZKSCAN3 localization – imaging, HeLa, EGFP fusions (AID 1224866)
The test system of test [1] is HeLa TFEB-EGFP nuclear translocation, imaging. Conditions: stronger effect = higher value; dose or concentration not given here.
Test [2] addresses Transcription factor E3 (Homo sapiens) (UniProt P19532). Conditions: HeLa; measured here: TFE3 nuclear translocation; stronger effect = higher value; dose or concentration not given here.
Test [3] deals with Zinc finger protein with KRAB and SCAN domains 3 (Homo sapiens) (UniProt Q9BRR0). The settings on record: HeLa EGFP-ZKSCAN3 cytoplasmic translocation; stronger effect = higher value; dose or concentration not given here.

With `CC1=C[C@H]2C(=O)[C@]3(C=C(C)[C@H](OC(=O)c4ccccc4)[C@@]3(O)[C@@H]1O)[C@H](C)C[C@@H]1[C@H]2C1(C)C`, the cells with nuclear TFEB-EGFP in test [1] is 65.8%. In test [2], this compound came in with a cells with nuclear EGFP-TFE3 of 4%. In test [3], this compound showed a cells with cytosolic EGFP-ZKSCAN3 of 68.4%.

Consider `CC1=C[C@H]2C(=O)[C@]3(C=C(C)[C@H](O)[C@@]3(O)[C@@H]1OC(=O)c1ccccc1)[C@H](C)C[C@@H]1[C@H]2C1(C)C`, for which the cells with nuclear TFEB-EGFP in test [1] was 81.3%. The compound also displayed a cells with nuclear EGFP-TFE3 in test [2] of 4.2%. In addition, in test [3], the cells with cytosolic EGFP-ZKSCAN3 was 79.2%.

On to `CC(=O)O[C@@H]1C(C)=C[C@H]2C(=O)[C@]3(C=C(C)[C@H](OC(=O)c4ccccc4)[C@@]13O)[C@H](C)C[C@@H]1[C@H]2C1(C)C`, for which the cells with nuclear TFEB-EGFP in test [1] is 74.5%. Further, the cells with nuclear EGFP-TFE3 in test [2] came out at 4.6%. In test [3], this compound returned a cells with cytosolic EGFP-ZKSCAN3 of 74.1%.

In the case of `CCCCCCCCCCCCCCCC(=O)OCC1=C[C@H]2C(=O)[C@]3(C=C(C)[C@H](O)[C@@]3(O)[C@@H]1O)[C@H](C)C[C@@H]1[C@H]2C1(C)C`, the cells with nuclear TFEB-EGFP in test [1] was 66.6%. Besides, in test [2], the cells with nuclear EGFP-TFE3 came out at 5.1%. Besides, the cells with cytosolic EGFP-ZKSCAN3 in test [3] came out at 74.3%.

Regarding `CC=C(C)C(=O)O[C@H]1C(C)=C[C@]23C(=O)[C@H](C=C(C)[C@@H](O)[C@]12O)[C@H]1[C@@H](C[C@H]3C)C1(C)C`, the cells with nuclear TFEB-EGFP in test [1] is 80.8%. For the same compound, in test [2], the cells with nuclear EGFP-TFE3 came to 5.4%. Further, in test [3], the cells with cytosolic EGFP-ZKSCAN3 worked out at 76.9%.

Regarding `CCCCCCCCCCCC(=O)O[C@@]12C[C@@H](C)[C@]34C=C(C)[C@H](OC(=O)C(C)C(C)C)[C@@]3(O)[C@H](O)C(CO)=C[C@@H](C4=O)[C@@H]1C2(C)C` (stereo not given in full), in test [1], the cells with nuclear TFEB-EGFP is 66.1%. The cells with nuclear EGFP-TFE3 in test [2] is 4.3%. In test [3], this compound had a cells with cytosolic EGFP-ZKSCAN3 of 69.7%.

`CC=C(C)C(=O)O[C@@H]1C(C)=C[C@H]2C(=O)[C@]3(C=C(C)[C@H](O)[C@@]13O)[C@H](C)C[C@@H]1[C@H]2C1(C)C`: the cells with nuclear TFEB-EGFP in test [1] is 85.6%. This compound also yielded a cells with nuclear EGFP-TFE3 in test [2] of 5.2%. In test [3], the cells with cytosolic EGFP-ZKSCAN3 turned out to be 83.6%.

Take `CC=C(C)C(=O)O[C@@H]1C(C)=C[C@H]2C(=O)[C@]3(C=C(C)[C@H](OC(C)=O)[C@@]13O)[C@H](C)C[C@@H]1[C@H]2C1(C)C`: the cells with nuclear TFEB-EGFP in test [1] was 70.3%. In test [2], this compound showed a cells with nuclear EGFP-TFE3 of 4.2%. In addition, in test [3], the cells with cytosolic EGFP-ZKSCAN3 came out at 75%.

For `CCCCCCCCCCCC(=O)O[C@@]12C[C@@H](C)[C@]34C=C(C)[C@H](O)[C@@]3(O)[C@H](O)C(COC(=O)C(C)C(C)C)=C[C@@H](C4=O)[C@@H]1C2(C)C` (stereo not given in full), the cells with nuclear TFEB-EGFP in test [1] is 62%. Further, the cells with nuclear EGFP-TFE3 in test [2] was found to be 3.9%. In test [3], this compound displayed a cells with cytosolic EGFP-ZKSCAN3 of 67.4%.

For `CCCCCCCCCCCCCC(=O)OCC1=C[C@H]2C(=O)[C@]3(C=C(C)[C@H](O)[C@@]3(O)[C@@H]1O)[C@H](C)C[C@@H]1[C@H]2C1(C)C`, the cells with nuclear TFEB-EGFP in test [1] was 67.2%. Moreover, the cells with nuclear EGFP-TFE3 in test [2] came to 4.8%. The cells with cytosolic EGFP-ZKSCAN3 in test [3] came to 76.4%.
